Data from ChEMBL document CHEMBL1201862, “PubChem BioAssay data set” (2004).
Activity calls are given as the source filed them.

How the values were obtained:
[1] = inhibitors of clade B AD8 Env fusion, dose response, cell-based, cherry-pick (AID 652062); assay type: functional;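 note: luciferase signal from cell-cell fusion driven by HIV-1 clade B AD8 Env; potency is for inhibitors of fusion seen as a drop in luminescence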
[2] = inhibitors of HIV Env-driven cell fusion, dose response, cherry-pick (AID 652057); assay type: functional, cell-based
[3] = biological target: T1, Heat shock factor protein 1 (Mus musculus, UniProt P38532); assay: inhibition of MG132-induced HSE-luciferase signal, confirmation, cell-based, NIH3T3, luminescence, dose retest (AID 2382); assay type: functional;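 note: NIH3T3 fibroblasts with HSF1-driven luciferase reporter stressed by proteasome inhibitor MG132; luminescence from HSF1-driven luciferase expression after 8 hours of MG132 stress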
T1 sequence (P38532 whole entry): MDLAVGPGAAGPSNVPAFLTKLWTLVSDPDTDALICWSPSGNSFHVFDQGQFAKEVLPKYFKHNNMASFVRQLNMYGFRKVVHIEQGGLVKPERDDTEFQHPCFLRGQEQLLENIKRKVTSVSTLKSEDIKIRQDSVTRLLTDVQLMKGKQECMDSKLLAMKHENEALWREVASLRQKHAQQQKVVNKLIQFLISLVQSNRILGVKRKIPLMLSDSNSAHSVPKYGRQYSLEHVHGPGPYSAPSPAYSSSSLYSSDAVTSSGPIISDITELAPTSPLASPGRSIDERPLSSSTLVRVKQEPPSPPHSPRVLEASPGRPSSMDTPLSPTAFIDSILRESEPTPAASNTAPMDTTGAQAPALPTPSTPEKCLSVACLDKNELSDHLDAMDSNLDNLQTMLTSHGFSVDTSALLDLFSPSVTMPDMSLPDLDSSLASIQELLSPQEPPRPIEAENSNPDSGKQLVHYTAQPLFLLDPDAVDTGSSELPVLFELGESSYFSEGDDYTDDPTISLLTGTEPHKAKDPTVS

[4] = ZM109 Env clade C HIV-1 fusion inhibitors, dose response, HeLa effector, CEM target cells, luciferase, cherry-pick (AID 652058); assay type: functional, cell-based
[5] = off-target signal loss in HeLa-CEM21 co-culture – HeLa F-luc CTL cells, cherry-picked, counter-screen for HIV-1 Env fusion inhibitor project, dose response (AID 652040); assay type: functional, cell-based;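 note: potency for signal decrease marking cytotoxic or nonspecific inhibition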
[6] = biological target: T2, Fatty acid synthase (Homo sapiens, UniProt P49327); assay: FAS thioesterase domain inhibitors, dose response, biochemical, kinetic fluorescence intensity (AID 624326); assay type: functional;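 note: rate of fluorescence rise from hydrolysis of a fluorogenic O-methyl fluorescein ester substrate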
[7] = biological target: T2, Fatty acid synthase; assay: FAS thioesterase domain inhibitors, dose response, biochemical, endpoint fluorescence intensity, uHTS hits (AID 624327); assay type: functional;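 note: fluorescence from hydrolysis of an O-methyl fluorescein acyl ester substrate by the enzyme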
[8] = biological target: T3, RNA-binding protein pos-1 (Caenorhabditis elegans, UniProt G5EF15); assay: inhibitors of POS-1/mex-3 RNA binding, dose response, biochemical, fluorescence polarization (AID 1964);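 note: purified POS-1 fused to maltose binding protein made in E. coli; potency of compounds blocking POS-1 binding to fluorescent RNA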
T3 sequence (G5EF15 whole entry): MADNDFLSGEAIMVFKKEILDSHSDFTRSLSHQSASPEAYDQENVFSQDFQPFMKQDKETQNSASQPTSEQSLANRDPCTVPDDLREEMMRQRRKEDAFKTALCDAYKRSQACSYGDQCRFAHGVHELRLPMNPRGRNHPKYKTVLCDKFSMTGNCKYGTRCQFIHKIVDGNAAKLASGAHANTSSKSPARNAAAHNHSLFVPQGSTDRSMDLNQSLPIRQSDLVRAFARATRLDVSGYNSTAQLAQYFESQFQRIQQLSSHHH

[9] = biological target: T4, Zinc finger protein mex-5 (Caenorhabditis elegans, UniProt Q9XUB2); assay: MEX-5/TCR-2 RNA interaction inhibitors, dose response, biochemical, C. elegans, fluorescence polarization (AID 1960)
T4 sequence (Q9XUB2 whole entry): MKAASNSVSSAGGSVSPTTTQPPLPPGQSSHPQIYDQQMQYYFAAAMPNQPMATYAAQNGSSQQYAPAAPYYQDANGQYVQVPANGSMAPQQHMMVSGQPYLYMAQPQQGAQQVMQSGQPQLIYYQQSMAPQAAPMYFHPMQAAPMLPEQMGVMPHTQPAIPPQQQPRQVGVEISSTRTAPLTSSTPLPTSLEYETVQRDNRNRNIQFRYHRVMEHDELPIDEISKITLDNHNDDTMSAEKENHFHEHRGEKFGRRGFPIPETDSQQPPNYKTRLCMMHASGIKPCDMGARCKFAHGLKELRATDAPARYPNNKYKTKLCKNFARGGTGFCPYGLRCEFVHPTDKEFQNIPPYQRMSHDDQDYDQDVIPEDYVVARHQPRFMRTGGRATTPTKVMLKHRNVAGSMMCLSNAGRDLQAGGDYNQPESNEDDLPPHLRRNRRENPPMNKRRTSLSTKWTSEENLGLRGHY

[10] = biological target: T5, Calpain-2 catalytic subunit (Sus scrofa, UniProt P43367); assay: pig calpain II inhibitor potency, dose response, biochemical, fluorogenic peptide substrate (AID 1420); assay type: functional
T5 sequence (P43367 whole entry): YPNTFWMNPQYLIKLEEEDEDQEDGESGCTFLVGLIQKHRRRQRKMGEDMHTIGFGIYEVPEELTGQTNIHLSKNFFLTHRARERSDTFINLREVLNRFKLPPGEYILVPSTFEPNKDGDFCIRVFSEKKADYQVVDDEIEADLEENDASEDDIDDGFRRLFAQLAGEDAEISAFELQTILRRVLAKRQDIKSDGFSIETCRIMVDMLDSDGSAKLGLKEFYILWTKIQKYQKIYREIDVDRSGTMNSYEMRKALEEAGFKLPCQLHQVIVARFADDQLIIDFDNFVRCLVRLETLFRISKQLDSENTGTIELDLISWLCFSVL

[11] = tested on: Vero; assay: cells; assay type: functional; details: Chlorocebus sabaeus
[12] = biological target: Glucose-6-phosphate 1-dehydrogenase (Homo sapiens, UniProt P11413); assay: human G6PD enzyme inhibitors, dose response, selectivity assay for P. falciparum G6PD inhibitor project, biochemical, fluorescence (AID 504792); assay type: functional
[13] = biological target: T6, Rac GTPase-activating protein 1 (Homo sapiens, UniProt Q9H0H5); assay: MgcRacGAP GTPase-activating activity inhibitors, confirmation, biochemical, ADP Hunter fluorescence, primary and confirmatory (AID 624330); assay type: functional
T6 sequence (Q9H0H5 whole entry): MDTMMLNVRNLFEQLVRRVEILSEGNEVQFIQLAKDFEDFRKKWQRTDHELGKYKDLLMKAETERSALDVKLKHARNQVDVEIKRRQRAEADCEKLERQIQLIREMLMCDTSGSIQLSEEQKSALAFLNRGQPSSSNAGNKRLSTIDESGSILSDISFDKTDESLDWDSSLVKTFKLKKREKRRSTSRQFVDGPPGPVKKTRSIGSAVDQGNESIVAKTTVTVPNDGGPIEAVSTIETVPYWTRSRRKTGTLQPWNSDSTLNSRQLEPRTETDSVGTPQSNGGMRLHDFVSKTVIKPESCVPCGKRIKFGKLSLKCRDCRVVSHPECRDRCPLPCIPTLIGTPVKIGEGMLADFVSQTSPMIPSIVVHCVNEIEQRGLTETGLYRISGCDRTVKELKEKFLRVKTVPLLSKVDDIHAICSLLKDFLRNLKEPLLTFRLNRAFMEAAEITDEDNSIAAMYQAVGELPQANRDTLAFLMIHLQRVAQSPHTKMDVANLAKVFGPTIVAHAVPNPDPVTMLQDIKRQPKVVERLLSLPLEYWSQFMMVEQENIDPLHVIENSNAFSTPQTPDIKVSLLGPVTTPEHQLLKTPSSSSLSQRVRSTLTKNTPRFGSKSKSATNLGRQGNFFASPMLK

[14] = Shn3 3'UTR reporter inhibitors, dose response, cell-based, Clone20 osteoblasts, firefly luciferase, cherry-picked (AID 624132); assay type: functional;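 note: firefly luciferase luminescence from reporter carrying the Shn3 3'UTR in osteoblasts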
[15] = P. falciparum Dd2 growth inhibitors, dose response, SYBR Green, cherry-picked samples (AID 1159567); assay type: functional, cell-based

T2 sequence (P49327 whole entry, the tested form may be a part): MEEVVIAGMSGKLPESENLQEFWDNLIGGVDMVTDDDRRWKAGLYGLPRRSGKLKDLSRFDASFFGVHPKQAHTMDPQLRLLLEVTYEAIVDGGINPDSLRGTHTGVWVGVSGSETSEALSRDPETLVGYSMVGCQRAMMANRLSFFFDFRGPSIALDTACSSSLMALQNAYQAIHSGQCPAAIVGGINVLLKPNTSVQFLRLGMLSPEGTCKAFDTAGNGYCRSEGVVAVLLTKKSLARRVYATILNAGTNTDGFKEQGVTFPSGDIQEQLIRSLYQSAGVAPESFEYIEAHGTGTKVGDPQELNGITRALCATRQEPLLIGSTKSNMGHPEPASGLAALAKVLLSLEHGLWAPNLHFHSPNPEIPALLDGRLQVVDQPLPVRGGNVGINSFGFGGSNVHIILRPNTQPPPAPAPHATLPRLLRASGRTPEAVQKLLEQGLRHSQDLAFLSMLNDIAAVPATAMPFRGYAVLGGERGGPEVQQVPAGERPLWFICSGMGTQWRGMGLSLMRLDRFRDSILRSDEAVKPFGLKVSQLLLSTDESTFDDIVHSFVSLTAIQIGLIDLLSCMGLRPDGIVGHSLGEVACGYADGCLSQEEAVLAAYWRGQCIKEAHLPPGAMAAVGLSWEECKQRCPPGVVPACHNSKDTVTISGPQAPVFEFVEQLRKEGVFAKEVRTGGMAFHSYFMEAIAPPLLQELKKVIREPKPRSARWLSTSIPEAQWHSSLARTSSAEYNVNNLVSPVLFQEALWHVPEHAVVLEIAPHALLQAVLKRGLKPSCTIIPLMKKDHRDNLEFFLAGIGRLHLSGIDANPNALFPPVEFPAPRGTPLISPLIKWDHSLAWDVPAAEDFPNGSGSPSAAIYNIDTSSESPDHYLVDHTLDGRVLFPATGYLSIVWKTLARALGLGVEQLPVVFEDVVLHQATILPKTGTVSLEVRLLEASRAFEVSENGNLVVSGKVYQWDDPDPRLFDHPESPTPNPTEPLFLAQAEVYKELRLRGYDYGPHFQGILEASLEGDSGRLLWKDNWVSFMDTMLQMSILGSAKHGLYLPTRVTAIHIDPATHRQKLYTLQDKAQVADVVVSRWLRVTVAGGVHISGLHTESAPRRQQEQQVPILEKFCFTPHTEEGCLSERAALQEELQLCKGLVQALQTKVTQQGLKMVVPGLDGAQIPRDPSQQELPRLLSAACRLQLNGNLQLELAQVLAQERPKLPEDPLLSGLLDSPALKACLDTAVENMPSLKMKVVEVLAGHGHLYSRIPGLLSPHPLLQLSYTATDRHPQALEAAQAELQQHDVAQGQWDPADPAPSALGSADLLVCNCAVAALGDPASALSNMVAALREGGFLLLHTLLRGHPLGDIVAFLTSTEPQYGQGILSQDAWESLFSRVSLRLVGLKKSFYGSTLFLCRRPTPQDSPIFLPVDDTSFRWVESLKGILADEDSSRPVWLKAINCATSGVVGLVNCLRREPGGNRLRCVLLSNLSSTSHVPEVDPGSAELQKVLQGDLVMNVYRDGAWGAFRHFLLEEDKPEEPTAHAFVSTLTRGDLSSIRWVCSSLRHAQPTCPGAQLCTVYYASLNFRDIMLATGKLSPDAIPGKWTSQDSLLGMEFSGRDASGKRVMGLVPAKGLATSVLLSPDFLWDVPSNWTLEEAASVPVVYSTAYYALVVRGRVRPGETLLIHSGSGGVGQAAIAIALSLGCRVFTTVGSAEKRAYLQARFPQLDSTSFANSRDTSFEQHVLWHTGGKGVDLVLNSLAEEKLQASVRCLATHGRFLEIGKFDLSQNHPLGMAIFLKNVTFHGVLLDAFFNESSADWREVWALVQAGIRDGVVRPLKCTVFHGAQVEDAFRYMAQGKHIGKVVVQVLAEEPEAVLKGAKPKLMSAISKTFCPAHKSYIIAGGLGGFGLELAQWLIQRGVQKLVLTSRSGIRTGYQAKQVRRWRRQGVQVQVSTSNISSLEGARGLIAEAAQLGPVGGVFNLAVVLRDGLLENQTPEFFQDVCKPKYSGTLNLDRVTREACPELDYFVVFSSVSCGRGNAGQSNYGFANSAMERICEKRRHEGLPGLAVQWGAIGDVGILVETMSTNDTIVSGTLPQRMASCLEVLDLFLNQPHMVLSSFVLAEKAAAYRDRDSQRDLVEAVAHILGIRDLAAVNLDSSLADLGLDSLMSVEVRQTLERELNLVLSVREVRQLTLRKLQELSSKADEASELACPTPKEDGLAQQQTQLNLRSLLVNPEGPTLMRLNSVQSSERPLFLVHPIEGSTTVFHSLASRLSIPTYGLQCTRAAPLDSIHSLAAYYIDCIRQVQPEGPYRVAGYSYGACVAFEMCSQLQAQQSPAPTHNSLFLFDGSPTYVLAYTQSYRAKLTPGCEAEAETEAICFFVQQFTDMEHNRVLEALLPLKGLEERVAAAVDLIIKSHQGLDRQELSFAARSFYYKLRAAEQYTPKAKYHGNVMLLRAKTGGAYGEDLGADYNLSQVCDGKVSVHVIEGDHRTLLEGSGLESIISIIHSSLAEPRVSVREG
Chain of Glucose-6-phosphate 1-dehydrogenase (P11413 whole entry): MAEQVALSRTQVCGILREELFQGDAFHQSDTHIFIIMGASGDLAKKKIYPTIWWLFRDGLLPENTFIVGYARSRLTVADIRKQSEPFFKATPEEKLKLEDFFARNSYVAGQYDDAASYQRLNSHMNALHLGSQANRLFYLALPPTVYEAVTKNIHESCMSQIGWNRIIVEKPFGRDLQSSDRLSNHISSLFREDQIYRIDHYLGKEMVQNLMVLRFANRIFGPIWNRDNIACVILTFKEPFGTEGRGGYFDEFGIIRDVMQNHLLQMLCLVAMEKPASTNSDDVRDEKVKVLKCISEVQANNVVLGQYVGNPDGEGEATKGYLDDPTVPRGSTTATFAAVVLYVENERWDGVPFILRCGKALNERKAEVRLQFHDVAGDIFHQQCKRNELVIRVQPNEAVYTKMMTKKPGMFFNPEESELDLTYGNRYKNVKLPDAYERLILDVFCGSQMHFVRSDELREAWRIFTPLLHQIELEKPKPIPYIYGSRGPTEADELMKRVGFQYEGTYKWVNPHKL

For CCN(CC)c1ncnc2ccc(Br)cc12, the AC50 [1] was 6.58 µM (active), the AC50 [2] was 3.83 µM (active) and the EC50 [3] was 13.8 µM (active). For the same compound, the AC50 [4] was 6 µM (active) and the AC50 [5] was 3.74 µM (active).
For O=C(NNc1cccc([N+](=O)[O-])c1)/C(=C\c1cccnc1)NC(=O)c1ccccc1, the IC50 [6] was 4.39 µM (active) and the IC50 [7] was 6.04 µM (active).
For Cc1ccc(S(=O)(=O)N2CCN(S(=O)(=O)c3ccc(C)cc3)C2c2ccccc2)cc1, the AC50 [1] was 1.58 µM (active), the AC50 [2] was 4.63 µM (active) and the AC50 [4] was 4.2 µM (active). For the same compound, the AC50 [5] was 4.72 µM (active).
In the case of O=C1NC(=O)/C(=C2\C(=O)Nc3ccc([N+](=O)[O-])cc32)S1, the EC50 [8] is reported as 13.2 µM (active), the IC50 [6] is reported as 9.24 µM (active) and the EC50 [9] is reported as 21.5 µM (inconclusive). The IC50 [7] was 13.8 µM (active).
In the case of CC1=C(C(=O)OCC2CCCO2)C(c2ccc(C)o2)C2=C(O)CC(c3ccc(N(C)C)cc3)CC2=N1 (stereo not drawn), the IC50 [10] is reported as > 50 µM (not active).
With CCCCCCCCCC(=O)N1c2ccccc2NC(=O)C1CC(=O)Nc1ccc(C(=O)O)cc1 (stereo not drawn) the IC50 [10] was 21.1 µM (not active).
With COc1cc(/C=C/C(=O)c2ccc(NS(=O)(=O)c3ccc(C)cc3)cc2)ccc1OC(F)F the CC50 [11] was 22.5 µM (active).
For CCN(C[C@H]1N[C@@](CC)(C(=O)OC)[C@H]2C(=O)N(Cc3ccccc3)C(=O)[C@@H]12)C(=O)Nc1ccc(Cl)cc1, the AC50 [1] was 0.277 µM (active), the AC50 [2] was < 0.26 µM (active) and the AC50 [4] was < 0.26 µM (active). For the same compound, the AC50 [5] was 0.367 µM (active).
For O=C(O)CC(Cc1ccc(Cl)cc1)C(=O)Nc1ccc([N+](=O)[O-])cc1 (stereo not drawn), the IC50 [10] was > 50 µM (not active).
In the case of O=C(CSc1nnnn1-c1ccccc1)CSc1nnnn1-c1ccccc1, the IC50 [10] is reported as 7.04 µM (not active).
In the case of COc1cc(NC(C)CCc2ccccc2)cc(OC)c1OC (stereo not drawn), the IC50 [12] is reported as 43.3 µM (inactive).
In the case of CCc1ccc(C(=O)COC(=O)c2cc([N+](=O)[O-])ccc2NCCO)cc1, the IC50 [6] is reported as 3.82 µM (active) and the IC50 [7] is reported as 1.87 µM (active).
For COc1ccc(CNC(=O)Cc2cn(C)c3ccccc23)c(OC)c1, the IC50 [12] was > 80 µM (inactive).
In the case of O=C(OCc1nnc(-c2ccccc2)o1)c1ccc2c(c1)OCO2, the IC50 [10] is reported as 15.2 µM (not active).
For CCOC(=O)Cc1cc(O)n2nc(C(C)(C)C)cc2n1, the IC50 [12] was > 80 µM (inactive).
With Cc1cc(NC(=O)/C=C/C(=O)N(c2ccccc2C)C(C(=O)NC2CCCC2)c2ccc(F)cc2)no1 (stereo not drawn) the CC50 [11] was 12.1 µM (active).
For N#CC1CCN(C(=O)c2ccc3c(Cl)c4c(nc3c2)CCCC4)CC1, the IC50 [6] was 1.89 µM (active) and the IC50 [7] was 2.16 µM (active).
In the case of COc1ccc(C2=NN(C(=O)c3ccc(Cl)c([N+](=O)[O-])c3)C(c3ccccc3)C2)cc1 (stereo not drawn), the IC50 [10] is reported as 3.26 µM (not active).
In the case of C/C(=N/Nc1ccc(C(=O)O)cc1)c1ccc2c(c1)Nc1ccccc1S2, the IC50 [13] is reported as 50.6 µM (active), the IC50 [6] is reported as 11.1 µM (active) and the IC50 [7] is reported as 13.2 µM (active).
For CCN(CC)S(=O)(=O)c1ccc(N2CCOCC2)c(NC(=O)c2nn(C(C)C)c(=O)c3ccccc23)c1, the AC50 [14] was 15.6 µM (active).
In the case of CCOC1=C2[C@@H](CN(S(=O)(=O)c3ccccc3C)[C@H]2c2ccc(Cl)cc2)[C@H]2C(=O)NC(=O)[C@H]2C1, the AC50 [1] is reported as 19.5 µM (active), the AC50 [2] is reported as 3.71 µM (active) and the AC50 [4] is reported as 3.92 µM (active). For the same compound, the AC50 [5] was 7.02 µM (active).
For O=C(CCC(=O)Nc1ccccc1Cl)N/N=C/c1ccccc1, the IC50 [12] was 31.6 µM (inactive).
In the case of O=C(c1ccccn1)N1CC(=O)N2[C@H](C1)[C@@H](c1ccc(C#CCc3ccccc3)cc1)[C@@H]2CO, the AC50 [15] is reported as 9.01 µM (active).
With CCC(=O)N1CC2(C1)CN(Cc1ccccc1Cl)[C@@H](CO)c1[nH]c3cc(OC)ccc3c12 the AC50 [15] was 6.32 µM (active).
For C[C@@H]1CN([C@@H](C)CO)C(=O)c2cc(NC(=O)Nc3ccc(C(F)(F)F)cc3)ccc2O[C@H]1CN(C)C(=O)Nc1cccc2ccccc12, the AC50 [15] was 5.06 µM (active).
With C[C@@H]1CN([C@H](C)CO)C(=O)c2cccc(NS(=O)(=O)c3ccccc3)c2O[C@H]1CN(C)Cc1ccc(Oc2ccccc2)cc1 the AC50 [15] was 6.14 µM (active).
In the case of N=C(N)N/N=C/c1ccc(Cl)c(Cl)c1, the CC50 [11] is reported as 21.4 µM (active).
